# Results as given in US7288510B2, “Nitrogen-containing ortho ester-based surfactant, its preparation and use” (priority 2001, dated 2007).
# Marks after values point to notes of the source that are not given here.
# Experiments:
# [1] = hydrotrope test: clarity interval of cleaning formulation; assay type: physicochemical; details: for Active amount of hydrotrope added: amount needed until the formulation of Table 10 was clear; for Cloud point of formulation: formulation of Table 10 with the hydrotrope
# Description: [table] Tetrapotassium pyrophoshate and sodium metasilicate pentahydrate were dissolved in tap water. The ethoxylated alcohol was added to this solution, which then turned cloudy. The hydrotrope was added until the solution was clear, and the required amount was recorded. Then the temperature was raised until the mixture went cloudy again.
# [2] = surface tension at a concentration of 0.1%; assay type: physicochemical; details: pH 8 buffer solution, bubble pressure method
# [3] = foaming behaviour (proposed ISO 4877 circulation method); assay type: physicochemical
# Description: The surfactant is dissolved in distilled water and diluted to a defined concentration. 500 ml of this solution is transferred to a thermostatable glass cylinder, graduated to 1500 ml. The solution is then circulated through a stainless steel tube using a pump. The solution enters the tube in the bottom of the glass cylinder and is released ca. 14 cm above the 1500-ml mark on the cylinder. The pump speed is 200 liter/h.
# The solution is circulated for 10 minutes (foam level recorded each minute), the pump is then stopped, and the foam level recorded for additional 5 minutes (proposed ISO-method ISO 4877).
# [4] = literature value; cited from earlier work
# [5] = dynamic contact angle of alkaline formulations; assay type: physicochemical; details: formulation diluted 1:10, on Parafilm PM-922
# Description: In this example, the wetting properties of alkaline formulations of some of the surfactants earlier described are tested by dynamic contact angle measurements.
# Formulations I-III above were diluted 1:10 before measurements. The dynamic contact angle was measured on a hydrophobic, polymeric material (Parafilm PM-922, American Can Company) using a First Ten Ångstroms FTÅ 200 instrument (Portsmouth, Va., USA) equipped with a video camera and an image analyzing unit.
compound,measurement,setting,value
CC(C)c1ccc(S(=O)(=O)[O-])cc1.[Na+] [Sodium cumene sulfonate],Active amount of hydrotrope added,[1],9.0 % (w/w)
same,Cloud point of formulation,[1],45-50 °C
disodium octyliminodipropionate,Active amount of hydrotrope added,[1],6.0 % (w/w)
same,Cloud point of formulation,[1],45-50 °C
"CCCCCCCCCCCC[N+](C)(C)C.[Br-] [Dodecyltrimethylammonium bromide, n-dodecyltrimethylammonium bromide]",γ at 0.10% and 21° C.,[2],52.5 mN/m
same,foaming behaviour in words,[3],not affected by the addition of acid
same,Foam Volume,"[3]; 0.01% in distilled water, 1 min, circulating",160 mL
same,Foam Volume,"[3]; 0.01% in distilled water, 2 min, circulating",160 mL
same,Foam Volume,"[3]; 0.01% in distilled water, 3 min, circulating",160 mL
same,Foam Volume,"[3]; 0.01% in distilled water, 4 min, circulating",140 mL
same,Foam Volume,"[3]; 0.01% in distilled water, 5 min, circulating",140 mL
same,Foam Volume,"[3]; 0.01% in distilled water, 6 min, circulating",140 mL
same,Foam Volume,"[3]; 0.01% in distilled water, 7 min, circulating",140 mL
same,Foam Volume,"[3]; 0.01% in distilled water, 8 min, circulating",140 mL
same,Foam Volume,"[3]; 0.01% in distilled water, 9 min, circulating",140 mL
same,Foam Volume,"[3]; 0.01% in distilled water, 10 min, circulating",140 mL
same,Foam Volume,"[3]; 0.01% in distilled water, 11 min, pump stopped at 10 min",0 mL
same,Foam Volume,"[3]; 0.01% in distilled water, 12 min, pump stopped at 10 min",0 mL
same,Foam Volume,"[3]; 0.01% in distilled water, 13 min, pump stopped at 10 min",0 mL
same,Foam Volume,"[3]; 0.01% in distilled water, 14 min, pump stopped at 10 min",0 mL
same,Foam Volume,"[3]; 0.01% in distilled water, 15 min, pump stopped at 10 min",0 mL
same,Foam Volume,"[3]; 0.1% acid treated (pH 2.5, sulfuric acid, stirred 10 minutes), 1 min, circulating",820 mL
same,Foam Volume,"[3]; 0.1% acid treated (pH 2.5, sulfuric acid, stirred 10 minutes), 2 min, circulating",1100 mL
same,Foam Volume,"[3]; 0.1% acid treated (pH 2.5, sulfuric acid, stirred 10 minutes), 3 min, circulating",1280 mL
same,Foam Volume,"[3]; 0.1% acid treated (pH 2.5, sulfuric acid, stirred 10 minutes), 4 min, circulating",1360 mL
same,Foam Volume,"[3]; 0.1% acid treated (pH 2.5, sulfuric acid, stirred 10 minutes), 5 min, circulating",1380 mL
same,Foam Volume,"[3]; 0.1% acid treated (pH 2.5, sulfuric acid, stirred 10 minutes), 6 min, circulating",1380 mL
same,Foam Volume,"[3]; 0.1% acid treated (pH 2.5, sulfuric acid, stirred 10 minutes), 7 min, circulating",1360 mL
same,Foam Volume,"[3]; 0.1% acid treated (pH 2.5, sulfuric acid, stirred 10 minutes), 8 min, circulating",1360 mL
same,Foam Volume,"[3]; 0.1% acid treated (pH 2.5, sulfuric acid, stirred 10 minutes), 9 min, circulating",1350 mL
same,Foam Volume,"[3]; 0.1% acid treated (pH 2.5, sulfuric acid, stirred 10 minutes), 10 min, circulating",1340 mL
same,Foam Volume,"[3]; 0.1% acid treated (pH 2.5, sulfuric acid, stirred 10 minutes), 11 min, pump stopped at 10 min",800 mL
same,Foam Volume,"[3]; 0.1% acid treated (pH 2.5, sulfuric acid, stirred 10 minutes), 12 min, pump stopped at 10 min",340 mL
same,Foam Volume,"[3]; 0.1% acid treated (pH 2.5, sulfuric acid, stirred 10 minutes), 13 min, pump stopped at 10 min",280 mL
same,Foam Volume,"[3]; 0.1% acid treated (pH 2.5, sulfuric acid, stirred 10 minutes), 14 min, pump stopped at 10 min",120 mL
same,Foam Volume,"[3]; 0.1% acid treated (pH 2.5, sulfuric acid, stirred 10 minutes), 15 min, pump stopped at 10 min",60 mL
same,Foam Volume,"[3]; 0.1% in distilled water, 1 min, circulating",780 mL
same,Foam Volume,"[3]; 0.1% in distilled water, 2 min, circulating",1080 mL
same,Foam Volume,"[3]; 0.1% in distilled water, 3 min, circulating",1260 mL
same,Foam Volume,"[3]; 0.1% in distilled water, 4 min, circulating",1340 mL
same,Foam Volume,"[3]; 0.1% in distilled water, 5 min, circulating",1370 mL
same,Foam Volume,"[3]; 0.1% in distilled water, 6 min, circulating",1360 mL
same,Foam Volume,"[3]; 0.1% in distilled water, 7 min, circulating",1360 mL
same,Foam Volume,"[3]; 0.1% in distilled water, 8 min, circulating",1340 mL
same,Foam Volume,"[3]; 0.1% in distilled water, 9 min, circulating",1320 mL
same,Foam Volume,"[3]; 0.1% in distilled water, 10 min, circulating",1320 mL
same,Foam Volume,"[3]; 0.1% in distilled water, 11 min, pump stopped at 10 min",1200 mL
same,Foam Volume,"[3]; 0.1% in distilled water, 12 min, pump stopped at 10 min",800 mL
same,Foam Volume,"[3]; 0.1% in distilled water, 13 min, pump stopped at 10 min",400 mL
same,Foam Volume,"[3]; 0.1% in distilled water, 14 min, pump stopped at 10 min",260 mL
same,Foam Volume,"[3]; 0.1% in distilled water, 15 min, pump stopped at 10 min",180 mL
same,cmc at 21° C.,[4],4.9^c g/l
same,Contact angle after 10 s,[5],68.2 °
same,Contact angle after 30 s,[5],67.9 °
same,Contact angle after 1 min,[5],67.4 °
"CCCCCCCCCCCCCC[N+](C)(C)C.[Br-] [Tetradecyltrimethylammonium bromide, n-tetradecyltrimethylammonium bromide]",γ at 0.10% and 21° C.,[2],41.5 mN/m
same,cmc at 21° C.,[4],1.2^d g/l
same,Contact angle after 10 s,[5],60.4 °
same,Contact angle after 30 s,[5],60.1 °
same,Contact angle after 1 min,[5],59.1 °
